Patent publication US20240269066A1, “USE OF CYP450 INHIBITOR IN INHIBITING OR KILLING MITES AND TREATING XEROPHTHALMIA” (PRECVISION BIOTECHNOLOGIES LTD., priority 2021, published 2024)
Structures can show the parent of a compound that is named as a salt.

Test system: Demodex
Assay: Acaricidal experiment: in vitro culture of Demodex with compound solutions, time to death of mites
Settings: 50 μl, 20° C., 96% humidity
Procedure: In this study, Demodex was collected from patients diagnosed with ocular Demodex infection. Those meeting the inclusion criteria would be enrolled after an informed conversation and signing an informed consent form.
Demodex detection was performed according to the conventional eyelash microscopic examination method. 3 eyelashes were extracted from each eyelid, and a total of 12 eyelashes were extracted. The extracted eyelashes were immediately placed on a glass slide, and one piece of each three eyelashes was placed under an ordinary light microscope for observation. Demodex at all stages were counted and classified according to morphology (specific criteria were: Demodex brevis at a head-to-body ratio of 1:1 and Demodex folliculorum at a head-to-body ratio of 1:3 to 1:4). Only adults that were fully exposed to the field of view were taken as subjects (larvae and eggs were not considered as subjects since they were more fragile in early life).
Based on the above detection of Demodex, 50 μl of different solutions were added to each slide, and the survival of the worms was observed every 1 hour. The death was judged by observing whether the worms were active (body, limbs, or the like) under a microscope. Two skilled Demodex-related experimenters observed and judged separately during the experiment. If the judgment results were different, the third skilled experimenter was asked to make an independent judgment. The culture in vitro was performed in a climate chamber at 20° C. and 96% humidity. Slides were transported in a humid chamber under observation and the solution was added appropriately to ensure high humidity before vacuoles appeared on solution evaporation.

| Compound | Average survival time of mites (compound 10 mg/mL in 0.9% NaCl) | other results |
| --- | --- | --- |
| C[C@@H]1CC[C@H]2C(C)(C)[C@H]3C[C@@]12CC[C@@]3(C)O [Cedrol] | <20.04 ± 1.84 h |  |
| CCc1ccc(C)c2ccc(C)c-2c1 [Chamazulene] | 11.49 ± 3.93 h |  |
| CN/C(=N/CCSCc1nc[nH]c1C)NC#N [Cimetidine] | 53 h |  |
| COc1cc(N)c(Cl)cc1C(=O)NC1CCN(CCCOc2ccc(F)cc2)CC1OC (stereo not drawn) [Cisapride] | 72 h |  |
| COC(=O)[C@H](c1ccccc1Cl)N1CCc2sccc2C1 [Clopidogrel Bisulfate] | 23 h |  |
| Clc1ccccc1C(c1ccccc1)(c1ccccc1)n1ccnc1 [Clotrimazole] |  | Average survival time of mites (compound 0.3 mg/mL in 0.9% NaCl): ~33.01 h; Average survival time of mites (compound 3 mg/mL in 0.9% NaCl): ~23.63 h |
| COc1cc(/C=C/C(=O)CC(=O)/C=C/c2ccc(O)c(OC)c2)ccc1O [Curcumin] | 45 h |  |
| CCOC(=O)C1=C(C)NC(C)=C(C(=O)OC)C1c1cccc(Cl)c1Cl (stereo not drawn) [Felodipine] | 71 h |  |
| CCC(C)n1ncn(-c2ccc(N3CCN(c4ccc(OCC5COC(Cn6cncn6)(c6ccc(Cl)cc6Cl)O5)cc4)CC3)cc2)c1=O (stereo not drawn) [Itraconazole] | 96 h |  |
| CC(=O)N1CCN(c2ccc(OCC3COC(Cn4ccnc4)(c4ccc(Cl)cc4Cl)O3)cc2)CC1 (stereo not drawn) [Ketoconazole] | 97 h |  |
| N#Cc1ccc(C(c2ccc(C#N)cc2)n2cncn2)cc1 [Letrozole] | 72 h |  |
| CC12CC3CC(C)(C1)CC(N)(C3)C2 [Memantine HCl] | 17 h |  |
| COc1c2occc2cc2ccc(=O)oc12 [Methoxsalen] | 18 h |  |
| Cc1ncc([N+](=O)[O-])n1CCO [Metronidazole] | 67 h |  |
| CO[C@@H]1[C@H](N(C)C(=O)c2ccccc2)C[C@H]2O[C@]1(C)n1c3ccccc3c3c4c(c5c6ccccc6n2c5c31)C(=O)NC4 [Midostaurin] | 42 h |  |
| CC(C)(O)c1ccccc1CC[C@@H](SCC1(CC(=O)O)CC1)c1cccc(/C=C/c2ccc3ccc(Cl)cc3n2)c1 [Montelukast Sodium] | 5 h |  |
| Cc1ccccc1C(OCCN(C)C)c1ccccc1 (stereo not drawn) [Orphenadrine Citrate] | 4.35 ± 2.05 h | Average survival time of mites (compound 1 mg/mL in 0.9% NaCl): ~7.09 ± 1.44 h |
| Fc1ccc([C@@H]2CCNC[C@H]2COc2ccc3c(c2)OCO3)cc1 [Paroxetine] |  | Average survival time of mites (compound 1 mg/mL in 0.9% NaCl): 2.44 ± 2.04 h |
| Cc1cc(O)c(C(=O)CCC(C)C)c(=O)o1 [Pogostone] | 1.90 ± 1.06 h |  |
| O=c1c(O)c(-c2ccc(O)c(O)c2)oc2cc(O)cc(O)c12 [Quercetin] | 4 h |  |
| C=C[C@H]1C[N@@]2CC[C@H]1C[C@@H]2[C@@H](O)c1ccnc2ccc(OC)cc12 [Quinidine sulfate] | 5 h | Average survival time of mites (compound 1 mg/mL in 0.9% NaCl): 8.33 ± 4.02 h; Average survival time of mites (compound 5 mg/mL in 0.9% NaCl): 5.35 ± 2.09 h |
| CN[C@H]1CC[C@@H](c2ccc(Cl)c(Cl)c2)c2ccccc21 [Sertraline HCl] | 2.50 ± 1.37 h | Average survival time of mites (compound 1 mg/mL in 0.9% NaCl): 9.07 ± 6.72 h |
| Nc1ccc(S(=O)(=O)Nc2ccnn2-c2ccccc2)cc1 [Sulfaphenazole] | 70 h |  |
| S=P(N1CC1)(N1CC1)N1CC1 [Thiotepa] | 22 h |  |
| N[C@@H]1C[C@H]1c1ccccc1 [Tranylcypromine HCl] | 2.89 ± 1.08 h | Average survival time of mites (compound 1 mg/mL in 0.9% NaCl): 7.44 ± 6.07 h; Average survival time of mites (compound 3 mg/mL in 0.9% NaCl): 5.66 ± 0.91 h; Average survival time of mites (compound 30 mg/mL in 0.9% NaCl): 2.24 ± 1.32 h |
| C[C@@H](c1ncncc1F)[C@](O)(Cn1cncn1)c1ccc(F)cc1F [Voriconazole] | 72 h |  |
| C=C1CC[C@@]23C[C@@H]1C(C)(C)[C@@H]2CC[C@H]3C [β-cedrene] | 42.57 ± 8.89 h |  |
| alpha-bisabolol | 7.60 ± 2.60 h |  |
